Values joined by “and” are separate entries in the source; they are usually repeats but may differ in a detail not shown here. Equal values may be shown once. Read-outs that look alike come from different tables or passages of the source.
Assays:
[1] = system: Cytochrome P450 (CYP), mouse liver microsomes; experiment: Metabolic stability (CYP) using mouse liver microsomes, HPLC; type: in vitro ADME; conditions: for Drug metabolism mainly by CYPs compared to CB-7: words; for Area (%) of peak: LC-UV (220 nm)
Experimental: For CB-7, B2-24, and B2-5A, 10 mg/mL DMSO solution was used. Each chemical compound was diluted with acetonitrile to 0.1 mg/mL, which was used as the analytical standard. Mouse liver microsomal fractions were rapidly thawed in a warm bath at 37° C. and kept on ice. Reaction buffer containing CYP cofactor was prepared on ice and mixed with the microsomal fractions. The reaction solution was preincubated at 37° C. for 5 minutes, and then the test substance solution was added and mixed well by pipetting. The volume of the reaction solution was 200 μL and the final concentration of the test substance was 0.1 mg/mL. The reaction solution was incubated at 37° C. for 30 minutes or 2 hours, and the reaction was stopped by adding 3 times the volume of acetonitrile and vortexing. After the reaction was stopped, the samples were centrifuged, and each supernatant was separated and dried in an evaporator. 50 μL of 50% acetonitrile solution was added to each solidified sample, and each sample was re-dissolved by vortexing for 5 minutes. Each redissolved solution was centrifuged, and each supernatant was subjected to HPLC analysis using a HITACHI Lachrom ELITE (HITACHI) as a HPLC system and COSMOSIL 5C18-MS-II, 4.6 mmI.D.×150 mm (nacalai tesque Co.) as a column.
Metabolic stability analysis of CB-7 and B2-24-4-5A·HCOOH was performed by the method of Example 5.

mouse TLR7 = target: T1, mouse TLR7 (Mus musculus, UniProt P58681); experiment: Inhibition of TLR7 activation in mouse TLR7-expressing NF-κB-GFP reporter Ba/F3 cells; type: cell-based; conditions: for TLR7 activation inhibitory activity, comparison in words: from IC50 of Table 3 / Table 5
T1 construct: expressed in transfected cells; host or cells: Ba/F3 cells (provided by Prof. Kensuke Miyake, University of Tokyo)
T1 sequence (P58681 27-1050): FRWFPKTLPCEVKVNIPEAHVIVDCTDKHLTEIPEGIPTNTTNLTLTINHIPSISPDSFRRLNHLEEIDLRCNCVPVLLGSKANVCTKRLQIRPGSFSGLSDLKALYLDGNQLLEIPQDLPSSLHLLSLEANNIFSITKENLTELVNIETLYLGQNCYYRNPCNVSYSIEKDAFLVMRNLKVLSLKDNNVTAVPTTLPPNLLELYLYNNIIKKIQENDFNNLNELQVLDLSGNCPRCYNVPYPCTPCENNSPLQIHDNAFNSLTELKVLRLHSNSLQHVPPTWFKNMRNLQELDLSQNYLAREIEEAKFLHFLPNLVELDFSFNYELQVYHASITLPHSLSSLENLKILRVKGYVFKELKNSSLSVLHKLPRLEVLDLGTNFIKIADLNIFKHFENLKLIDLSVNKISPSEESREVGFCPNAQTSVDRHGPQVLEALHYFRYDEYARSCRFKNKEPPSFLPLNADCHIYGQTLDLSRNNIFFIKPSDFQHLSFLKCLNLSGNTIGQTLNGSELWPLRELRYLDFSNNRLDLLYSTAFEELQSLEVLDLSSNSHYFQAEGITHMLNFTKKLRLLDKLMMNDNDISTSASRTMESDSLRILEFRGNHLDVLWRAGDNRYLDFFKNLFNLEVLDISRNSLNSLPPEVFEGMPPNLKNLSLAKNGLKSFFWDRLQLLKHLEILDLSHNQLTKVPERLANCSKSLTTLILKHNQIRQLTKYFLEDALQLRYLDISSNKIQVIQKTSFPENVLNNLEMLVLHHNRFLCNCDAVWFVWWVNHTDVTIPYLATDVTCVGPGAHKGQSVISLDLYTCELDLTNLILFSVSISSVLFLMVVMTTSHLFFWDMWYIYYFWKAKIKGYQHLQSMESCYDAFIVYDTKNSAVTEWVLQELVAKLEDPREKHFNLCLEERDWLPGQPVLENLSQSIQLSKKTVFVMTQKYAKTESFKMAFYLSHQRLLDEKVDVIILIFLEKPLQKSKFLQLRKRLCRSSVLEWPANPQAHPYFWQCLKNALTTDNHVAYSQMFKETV
From the text: Mouse TLR7-expressing reporter cells (Ba/F3 cells) were used to evaluate inhibition of TLR7 activation in each derivative and CB-7. These cells were provided by Professor Kensuke Miyake (Department of Infection Genetics, Institute of Medical Science, University of Tokyo). These cells have been transfected with a reporter gene that connects GFP gene downstream of the promoter region of NF-κB. Therefore, the expression of GFP is enhanced by the addition of a ligand for TLR7 expressed by the cells. The fluorescence intensity of GFP was attenuated by the addition of each derivative, and the inhibition of TLR7 activation by each derivative was evaluated as an indicator.
Loxoribine (Alexis Biochemicals) was used as the ligand for mouse TLR7. Gardiquimod (Invivogen) was used as the ligand for human TLR7.
Ba/F3 cells cultured in RPMI 1640 medium containing 10% (v/v) fetal calf serum (FCS), 50 U/mL penicillin, 50 μg/mL streptomycin, 2 mM L-glutamine, […] 2-mercaptoethanol, 1 ng/mL interleukin-3 were aliquoted into 96-well plates so that the number of cells per well was 1.0×10^5 cells/100 μL. 50 μL of each derivative or CB-7, prepared to final concentrations of 1, 5, 10, 25, 50, and 100 µM, was added to each well. 96-well plates were incubated at 37° C. for 30 minutes in the presence of 5% CO2. Next, 250 μg/mL Roxoribin was added to each well and incubated for 18 hours. At the end of incubation, cells were washed with PBS (FACS buffer) containing 2.5% (v/v) FCS and suspended in 200 μL of FACS buffer containing 25 μg/mL […] for each cell. GFP fluorescence intensities of the cells were analyzed by flow cytometry. Flow cytometry measurement was performed on a FACSCanto™ II (Becton Dickinson) and data were analyzed with FlowJo software (Tree Star). The MFI (%) upon stimulation with roxoribin in the presence of […] derivatives or CB-7 was calculated using the MFI upon stimulation with roxoribin alone as 100%, and then IC50 (chemical compound concentration that inhibits activity by 50%) was calculated by logistic regression analysis.
The evaluation of the TLR7 activation inhibition by B2-24-4-5A·HCOOH was performed by the method described in Example 2. CB-7 and B2-24-4·HCl were used as controls.

[2] = Plasma concentration in normal mice after oral administration; type: in vivo, mice (C57BL/6N); conditions: C57BL/6N mice, 1 mg orally, LC/MS/MS
Experimental: Plasma concentrations of CB-7 or B2-24-4-5A·HCOOH were measured in normal mice (C57BL/6N, 11 weeks old, female) after oral administration. 1 mg of CB-7 or B2-24-4-5A·HCOOH was administered orally to mice C57BL/6N. After 0.5, 1, 2, 4, or 8 hours, blood was collected from mice C57BL/6N to prepare plasma. The concentration of CB-7 or B2-24-4-5A·HCOOH in the plasma was measured by LC/MS/MS.

[3] = Example 3, 0.1 mg/mL, 37° C., 30 minutes or 2 hours
[4] = Example 2, Ba/F3 reporter cells, loxoribine stimulation 18 hours, GFP MFI, read-out: IC50 of CB-7 derivatives with modified Areas a and b

Row | Structure (SMILES) | Predicted metabolic modifications (CYP) ([1]; Example 3) | Number of peaks detected by HPLC [1, 3] | IC50 (mouse TLR7; [4]) [nM] | Number of peaks detected by HPLC ([1]; Example 9) | Area (%) of peak ([1]; Example 9, 0 h) [%] | Area (%) of peak ([1]; Example 9, incubation 0.5 h) [%] | Area (%) of peak ([1]; Example 9, incubation 2.0 h) | IC50 (mouse TLR7; Example 5, Table 5, method of Example 2, read-out: IC50) [nM] | Plasma concentration after 8 hours [2] | Drug metabolism mainly by CYPs compared to CB-7 [1] | TLR7 activation inhibitory activity, comparison in words (mouse TLR7)
1 | C=C(C)[C@@H]1CC[C@]2(COC(=O)C2)C[C@H]1c1ccc(OC)cc1 [B2-5A] | +O | 4 | 2430 |  |  |  |  |  |  | improved drug metabolism mainly by CYPs compared to CB-7 | higher TLR7 activation inhibitory activity than CB-7
2 | C=C[C@]1(CO)CC[C@@H](C(=C)C)[C@H](c2ccc(OC)cc2)C1 [CB-7, reference compound] |  | 7 | 3120 | 9 | 100 | 65.3 | 41.6% and 41.2% | 7660 | could not be detected |  | 
3 | C=C(C)[C@@H]1CCC(=O)C[C@H]1c1ccc(OC)cc1 [I-7(Intermediate)] |  |  | > 100000 |  |  |  |  |  |  |  | 

Compounds with a lower IC50 (mouse TLR7; [4]), results first:

Row | Predicted metabolic modifications (CYP) ([1]; Example 3) | Number of peaks detected by HPLC [1, 3] | IC50 (mouse TLR7; [4]) [nM] | Number of peaks detected by HPLC ([1]; Example 9) | Area (%) of peak ([1]; Example 9, 0 h) [%] | Area (%) of peak ([1]; Example 9, incubation 0.5 h) [%] | Area (%) of peak ([1]; Example 9, incubation 2.0 h) | IC50 (mouse TLR7; Example 5, Table 5, method of Example 2, read-out: IC50) [nM] | Plasma concentration after 8 hours [2] | Structure (SMILES) | Drug metabolism mainly by CYPs compared to CB-7 [1] | TLR7 activation inhibitory activity, comparison in words (mouse TLR7)
4 |  | 4 | 440 |  |  |  |  |  |  | C=C[C@]1(CO)CC[C@@H](C(=C)C)[C@H](c2ccc(CN3CCCC3)cc2)C1 [B2-24] | improved drug metabolism mainly by CYPs compared to CB-7 | higher TLR7 activation inhibitory activity than CB-7
5 |  |  | 1740 |  |  |  |  |  |  | C=CC[C@]1(CO)CC[C@@H](C(=C)C)[C@H](c2ccc(OCC(C)CO)cc2)C1 (some centres unmarked) [B2-29] |  | higher TLR7 activation inhibitory activity than CB-7

Source: patent publication US12410157B2, “Compound useful as toll-like receptor 7 activation inhibitor” (TOYAMA PREFECTURAL UNIVERSITY, priority 2020, dated 2025)
